Measurements: patent publication US20260102377A1, “COMPOSITIONS AND METHODS FOR TREATING MYASTHENIA GRAVIS” (priority 2022, published 2026)

What was measured:
[1] = tested on: EAMG rats; test: 14-day dosing in EAMG animals: grip strength; type: in vivo, rat
Procedure: To induce EAMG, 250 μL of emulsion of Complete Freund's Adjuvant, consisting of heat-inactivated Mycobacterium tuberculosis H37Ra in non-metabolizable oils, together with Phosphate-Buffered Saline (PBS) and 80 μg of the extracellular α-domain peptide fragment of the human nicotinic acetylcholine receptor (antigen) was injected subcutaneously in seven-week-old, anaesthetized Lewis rats. The disease-inducing antigen was supplied by the Hellenic Pasteur institute3. The emulsion was deposited at the tail base, left hindleg, and right foreleg. After injection, animals were allowed to recover and returned to their home cage maintained in ventilated racks under controlled temperature (20 to 22° C.) and humidity (˜55%) control, under a 12-h light/12-h dark cycle with food and water provided ad libitum. The animals had pathogen free status and the housing and changing system was designed to assure that the pathogen free status was preserved during the study. The EAMG rats were observed, weighed, and scored for MG symptoms weekly until symptoms of MG developed, whereafter animals were observed daily.
Sixteen (16) rats with an EAMG clinical score of 2 were allocated to the study and stratified to one of the two treatment groups (vehicle vs NMD670, 8 rats per group). Stratification was based on rotarod endurance and grip strength performance with the aim to obtain similar average starting points for the two groups. Grip strength and Rotarod performance were measured prior to treatment (day 0) and on days 1, 4, 7, 9, 11 and 14 during treatment. The treatment was administered by per oral gavage. Dosing was twice daily with 20 mg/kg NMD670 or vehicle (sterile water) for 14 days unless the rat was subjected to premature termination due to reaching humane endpoints. The dose solutions for the treatment groups were blinded. Thus, experimenters and subsequent analysis were blinded as to which group received CIC-1 inhibitor and which group received vehicle. Full analysis of data and statistics were concluded before unblinding the data. Plasma samples were obtained on days 0, 1 and 14, with muscle samples obtained on day 14 at termination.
Grip strength was measured on a BIOSEB BIO-GT3 Grip strength meter (force transducer, S/N 180271). The rat was handled to allow all four paws to grab the mesh on the grip meter and the rat was then pulled 5 times by the base of the tail in the opposite direction of its body orientation, i.e. towards the operator and away from the grip meter. Care was taken to ensure that the force recorded reflected the grip strength of the rat and not the force of the pulls conducted by the operator. There was minimal pause between the 5 repeated pulls with recordings being separated only by the time of handling the rat (few seconds). Measurements were considered invalid if the rat let go with one or more limbs before the pull was initiated. Average values of the 5 pulls per test occasion were used for further data processing.

[2] = tested on: patients with MG; test: Phase 1 FIH study: safety in patients with MG; type: in vivo, human
Procedure: 12 patients were enrolled and completed the study. For each subject, the study consisted of three study periods during which subjects received either a single dose of NMD670 400 mg, NMD670 1200 mg, or placebo with a 7-day washout period between visits. On these study visits, subjects were asked to refrain from their regular dose of pyridostigmine (if applicable) from 14 h before dosing until after the last pharmacodynamic measurement on Day 1 (see Table 13: Visit and Assessment Schedule). The cross-over design allowed intra-individual comparison of drug effects versus placebo (see FIG. 16). A balanced design was applied to control for first-order carry-over effects.
Part C was a double-blinded, placebo-controlled, three-way cross-over comparison of two single oral doses of NMD670 in men and women with stable symptomatic myasthenia gravis. 12 patients were enrolled. For each subject, the study consisted of three study periods during which subjects received either a single dose of NMD670 or placebo. On these study visits, subjects were asked to refrain from their regular dose of pyridostigmine (if applicable) for 14 hours before dosing. Single doses were administered in randomized order (400 mg free acid, 1200 mg free acid, or placebo p.o.), with a 7-day washout period between visits (FIG. 16). NMD670/placebo was administered with 240 ml of still water.

With C[C@H](Oc1ccc(Br)cc1-c1ccon1)C(=O)O [NMD670, (2S)-2-[4-bromo-2-(1,2-oxazol-3-yl)phenoxy]propanoic acid] the “Grip strength over vehicle group throughout the period of treatment” value ([1]; 14-day chronic dosing, 20 mg/kg twice daily) was “increased grip strength”, the “Grip strength relative to bodyweight” value ([1]; day 0 (prior to treatment), 20 mg/kg twice daily per oral, P > 0.9999 vs vehicle) was 4.8 ± 0.17 and the “Grip strength relative to bodyweight” value ([1]; day 1, 20 mg/kg twice daily per oral, P = 0.1225 vs vehicle) was 5.5 ± 0.46. For the same compound, the “Grip strength relative to bodyweight” value ([1]; day 4, 20 mg/kg twice daily per oral, P = 0.0629 vs vehicle) was 5.4 ± .038, the “Grip strength relative to bodyweight” value ([1]; day 7, 20 mg/kg twice daily per oral, P = 0.7266 vs vehicle) was 4.9 ± 0.26 and the “Grip strength relative to bodyweight” value ([1]; day 9, 20 mg/kg twice daily per oral, P = 0.2100 vs vehicle) was 5.0 ± 0.27. For the same compound, the “Grip strength relative to bodyweight” value ([1]; day 11, 20 mg/kg twice daily per oral, P = 0.0206 vs vehicle) was 5.4 ± 0.41, the “Grip strength relative to bodyweight” value ([1]; day 14, 20 mg/kg twice daily per oral, P = 0.1010 vs vehicle) was 5.1 ± 0.47 and the “Treatment-related adverse effects in MG patients” value ([2]; 1200 mg doses) was “no treatment-related adverse effects”. For the same compound, the “Myotonia in patients with MG” value ([2]; single doses up to 1200 mg) was “not observed”.
